Bridge positions count the residues as written; N and C are the ends. Square brackets hold non-standard residues; d marks the D form. Peptide text beside a SMILES is read from it. R8 = C=CCCCCCC[C@@](C)(N)C(=O)O; S8 = C=CCCCCCC[C@](C)(N)C(=O)O; R5 = C=CCCC[C@@](C)(N)C(=O)O; S5 = C=CCCC[C@](C)(N)C(=O)O
Tests used:
Hepacivirus hominis = assay: Inhibition of HCV envelope glycoprotein E2 interaction to human cell surface protein CD81
[1] = Cytotoxicity against human Huh7.5.1 cells at 1000 ug/ml after 48 hrs by WST-1 assay; assay type: cell-based
Hepatitis C virus [2] = assay: Antiviral activity against HCV JFH-1 infected in human Huh 7.5.1 cells after 2 days by firefly luciferase reporter gene assay; assay type: functional, organism-based, Hepacivirus hominis; conditions: JFH-1, Huh-7.5.1, 48 h
Hepatitis C virus [3] = assay: Inhibition of HCV 1b con1 envelope glycoprotein E2 interaction to cell surface protein CD81 in human Huh 7.5.1 cells after 2 days by firefly luciferase based luminescene assay; assay type: organism-based, Hepacivirus hominis; conditions: Con1, Huh-7.5.1, 48 h
[4] = Inhibition of HCV JFH-1 envelope glycoprotein E2 interaction to cell surface protein CD81 in human Huh 7.5.1 cells after 2 days by firefly luciferase based luminescene assay; set-up: species or system Hepatitis C virus JFH-1
[5] = Half life of the compound in presence of chymotrypsin at 20 uM by HPLC analysis; assay type: physicochemical
Hepatitis C virus [6] = assay: Antiviral activity against HCV at 50 uM; assay type: functional, Hepacivirus hominis

Compound | INH (Hepacivirus hominis) | EC50 (Hepatitis C virus [2]) | EC50 (Hepatitis C virus [3]) | EC50 [4] | half-life at 20 µM [5] | Activity [1] | inhibition at 50 µM (Hepatitis C virus [6])
CC[C@H](C)[C@@H]1NC(=O)[C@@](C)(NC(=O)[C@H](CC(N)=O)NC(=O)[C@H](CO)NC(=O)CNC(=O)[C@H](CO)NC(=O)[C@@H]2CCCN2C(C)=O)CCC/C=C\CCC[C@@](C)(C(=O)N[C@@H](Cc2ccccc2)C(=O)N[C@@H](CCCCN)C(=O)N[C@@H](CCC(=O)O)C(=O)N[C@@H](CC(=O)O)C(N)=O)NC(=O)[C@H](CC(N)=O)NC(=O)[C@H](CO)NC1=O (Ac-PSGSN[S5]ISN[S5]FKED-NH2; staple (Z) 6-10) | – | 240 µM | 316 µM | 200 µM | > 3.33 h | – | –
CCN(CCN(CC)C(=O)c1nc[nH]c1C(=O)N[C@@H](CC(C)C)C(=O)OCc1ccccc1)C(=O)c1nc[nH]c1C(=O)N[C@@H](CC(C)C)C(=O)OCc1ccccc1 | 38 µM | – | – | – | – | – | –
CC[C@H](C)[C@@H]1NC(=O)[C@H](CC(N)=O)NC(=O)[C@@](C)(NC(=O)CNC(=O)[C@H](CO)NC(=O)[C@@H]2CCCN2C(C)=O)CCC/C=C\CCC[C@@](C)(C(=O)N[C@@H](CC(N)=O)C(=O)N[C@@H](CC(C)C)C(=O)N[C@@H](Cc2ccccc2)C(=O)N[C@@H](CCCCN)C(=O)N[C@@H](CCC(=O)O)C(=O)N[C@@H](CC(=O)O)C(N)=O)NC(=O)[C@H]([C@@H](C)CC)NC1=O (Ac-PSG[S5]NII[S5]NLFKED-NH2; staple (Z) 4-8) | – | 40 µM | 164 µM | 21 µM | > 3.33 h | – | –
CC[C@H](C)[C@@H]1NC(=O)[C@H]([C@@H](C)CC)NC(=O)[C@@](C)(NC(=O)[C@H](CO)NC(=O)CNC(=O)[C@H](CO)NC(=O)[C@@H]2CCCN2C(C)=O)CCCCCC/C=C/CCC[C@@](C)(C(=O)N[C@@H](CCC(=O)O)C(=O)N[C@@H](CC(=O)O)C(N)=O)NC(=O)[C@H](Cc2ccccc2)NC(=O)[C@H](CC(C)C)NC(=O)[C@H](CC(N)=O)NC(=O)[C@H](CO)NC1=O (Ac-PSGS[S8]IISNLF[S5]ED-NH2; staple (E) 5-12) | – | 357 µM | 310 µM | 78 µM | > 3.33 h | – | –
O=C(OCc1ccccc1)c1ccccc1O [BENZYL SALICYLATE] | – | – | – | – | – | – | 25%

Further lines, with some results ahead:

INH (Hepacivirus hominis) | EC50 (Hepatitis C virus [2]) | EC50 (Hepatitis C virus [3]) | EC50 [4] | half-life at 20 µM [5] | Compound | Activity [1] | inhibition at 50 µM (Hepatitis C virus [6])
53 µM | – | – | – | – | CCN(CCN(CC)C(=O)c1nc[nH]c1C(=O)N[C@H](C(=O)OCc1ccccc1)C(C)C)C(=O)c1nc[nH]c1C(=O)N[C@H](C(=O)OCc1ccccc1)C(C)C | – | –
– | 244 µM | 320 µM | 320 µM | 0.167 h | Ac-PSGSNIISNLFKED-NH2 | Non-toxic | –
– | 181 µM | 280 µM | 313 µM | > 3.33 h | CC[C@H](C)[C@H](NC(=O)[C@H](CC(N)=O)NC(=O)[C@H](CO)NC(=O)CNC(=O)[C@H](CO)NC(=O)[C@@H]1CCCN1C(C)=O)C(=O)N[C@H](C(=O)N[C@@]1(C)CCC/C=C\CCC[C@@](C)(C(=O)N[C@@H](CCC(=O)O)C(=O)N[C@@H](CC(=O)O)C(N)=O)NC(=O)[C@H](Cc2ccccc2)NC(=O)[C@H](CC(C)C)NC(=O)[C@H](CC(N)=O)NC1=O)[C@@H](C)CC (Ac-PSGSNII[S5]NLF[S5]ED-NH2; staple (Z) 8-12) | – | –
– | 39 µM | 35 µM | 17 µM | > 3.33 h | CC[C@H](C)[C@@H]1NC(=O)[C@H](CC(N)=O)NC(=O)[C@H](CO)NC(=O)[C@](C)(NC(=O)[C@H](CO)NC(=O)[C@@H]2CCCN2C(C)=O)CCCCCC/C=C\CCC[C@](C)(C(=O)N[C@@H](Cc2ccccc2)C(=O)N[C@@H](CCCCN)C(=O)N[C@@H](CCC(=O)O)C(=O)N[C@@H](CC(=O)O)C(N)=O)NC(=O)[C@H](CC(N)=O)NC(=O)[C@H](CO)NC(=O)[C@H]([C@@H](C)CC)NC1=O (Ac-PS[R8]SNIISN[R5]FKED-NH2; staple (Z) 3-10) | Non-toxic | –

Source: ChEMBL document CHEMBL2390948, “Stapled peptide-based membrane fusion inhibitors of hepatitis C virus” (Bioorg Med Chem, 2013)
